Experimental data taken from ChEMBL document CHEMBL1140860, “Synthesis and evaluation of dihydroartemisinin and dihydroartemisitene acetal dimers showing anticancer and antiprotozoal activity” (Bioorg Med Chem, 2009).

Tests used:
[1] = system: HUVEC; test: Antiangiogenic activity against HUVEC assessed as growth inhibition by NCI antiangiogenesis assay; type: functional, cell-based; conditions: Homo sapiens
[2] = system: HUVEC; test: Antiangiogenic activity against HUVEC assessed as inhibition of capillary-like structure formation by NCI antiangiogenesis assay; type: functional, cell-based; conditions: Homo sapiens
[3] = system: HUVEC; test: Antiangiogenic activity against HUVEC assessed as inhibition of VEGF-induced cell migration by NCI antiangiogenesis assay; type: functional, cell-based; conditions: Homo sapiens
[4] = system: Malme-3M; test: Growth inhibition of human MALME-3M cells after 48 hrs by sulforhodamine B assay; type: functional
[5] = system: UACC-257; test: Growth inhibition of human UACC257 cells after 48 hrs by sulforhodamine B assay; type: functional; conditions: UACC-257, 48 h
[6] = system: M14; test: Growth inhibition of human M14 cells after 48 hrs by sulforhodamine B assay; type: functional; conditions: M14, 48 h
[7] = system: SK-MEL-28; test: Growth inhibition of human SK-MEL-28 cells after 48 hrs by sulforhodamine B assay; type: functional; conditions: SK-MEL-28, 48 h
[8] = Selectivity index, ratio of TC50 for african green monkey (Cercopithecus aethiops) Vero cells to IC50 for chloroquine-resistant Plasmodium falciparum W2; type: toxicity, cell-based
[9] = system: KM12; test: Growth inhibition of human KM12 cells after 48 hrs by sulforhodamine B assay; type: functional; conditions: KM12, 48 h
[10] = system: MOLT-4; test: Growth inhibition of human MOLT4 cells after 48 hrs by sulforhodamine B assay; type: functional; conditions: MOLT-4, 48 h
[11] = system: PC-3; test: Growth inhibition of human PC3 cells after 48 hrs by sulforhodamine B assay; type: functional; conditions: PC-3, 48 h
[12] = system: HCT-15; test: Growth inhibition of human HCT15 cells after 48 hrs by sulforhodamine B assay; type: functional; conditions: HCT-15, 48 h
[13] = system: Plasmodium falciparum; test: Antimalarial activity after 72 hrs against chloroquine-resistant Plasmodium falciparum W2 infected erythrocytes by LDH assay; type: functional, organism-based; conditions: W2, 72 h
[14] = system: HOP-92; test: Growth inhibition of human HOP92 cells after 48 hrs by sulforhodamine B assay; type: functional; conditions: HOP-92, 48 h
[15] = system: A498; test: Growth inhibition of human A498 cells after 48 hrs by sulforhodamine B assay; type: functional; conditions: A498, 48 h
[16] = system: NCI-H23; test: Growth inhibition of human NCI-H23 cells after 48 hrs by sulforhodamine B assay; type: functional; conditions: NCI-H23, 48 h
[17] = system: EKVX; test: Growth inhibition of human EKVX cells after 48 hrs by sulforhodamine B assay; type: functional
[18] = system: K562; test: Growth inhibition of human K562 cells after 48 hrs by sulforhodamine B assay; type: functional; conditions: K562, 48 h
[19] = system: UACC-62; test: Growth inhibition of human UACC62 cells after 48 hrs by sulforhodamine B assay; type: functional; conditions: UACC-62, 48 h
[20] = system: SW-620; test: Growth inhibition of human SW620 cells after 48 hrs by sulforhodamine B assay; type: functional; conditions: SW-620, 48 h
[21] = system: NCI-H226; test: Growth inhibition of human NCI-H226 cells after 48 hrs by sulforhodamine B assay; type: functional; conditions: NCI-H226, 48 h
[22] = system: U-251; test: Growth inhibition of human U251 cells after 48 hrs by sulforhodamine B assay; type: functional; conditions: U-251, 48 h
[23] = system: COLO 205; test: Growth inhibition of human COLO205 cells after 48 hrs by sulforhodamine B assay; type: functional; conditions: COLO 205, 48 h
[24] = system: CAKI-1; test: Growth inhibition of human Caki1 cells after 48 hrs by sulforhodamine B assay; type: functional; conditions: CAKI-1, 48 h
[25] = system: SK-MEL-2; test: Growth inhibition of human SK-MEL-2 cells after 48 hrs by sulforhodamine B assay; type: functional; conditions: SK-MEL-2, 48 h
[26] = system: MCF7; test: Growth inhibition of human MCF7 cells after 48 hrs by sulforhodamine B assay; type: functional; conditions: MCF7, 48 h
[27] = system: NCI-H322M; test: Growth inhibition of human NCI-H322M cells after 48 hrs by sulforhodamine B assay; type: functional
[28] = system: DU-145; test: Growth inhibition of human DU145 cells after 48 hrs by sulforhodamine B assay; type: functional; conditions: DU-145, 48 h
[29] = Growth inhibition of human Hs 578T cells after 48 hrs by sulforhodamine B assay; type: functional
[30] = system: MDA-MB-231; test: Growth inhibition of human MDA-MB-231 cells after 48 hrs by sulforhodamine B assay; type: functional; conditions: MDA-MB-231, 48 h
[31] = system: MDA-N; test: Growth inhibition of human MDA-N cells after 48 hrs by sulforhodamine B assay; type: functional
[32] = system: HCT-116; test: Growth inhibition of human HCT116 cells after 48 hrs by sulforhodamine B assay; type: functional; conditions: HCT-116, 48 h
[33] = system: SN12C; test: Growth inhibition of human SN12C cells after 48 hrs by sulforhodamine B assay; type: functional
[34] = Selectivity index, ratio of TC50 for african green monkey (Cercopithecus aethiops) Vero cells to IC50 for chloroquine-sensitive Plasmodium falciparum D6; type: toxicity, cell-based
[35] = system: CCRF-CEM; test: Growth inhibition of human CCRF-CEM cells after 48 hrs by sulforhodamine B assay; type: functional
[36] = system: IGROV-1; test: Growth inhibition of human IGROV1 cells after 48 hrs by sulforhodamine B assay; type: functional; conditions: IGROV-1, 48 h
[37] = system: A549; test: Growth inhibition of human A549 cells after 48 hrs by sulforhodamine B assay; type: functional; conditions: A549, 48 h
[38] = system: OVCAR-3; test: Growth inhibition of human OVCAR-3 cells after 48 hrs by sulforhodamine B assay; type: functional; conditions: OVCAR-3, 48 h
[39] = system: SNB-75; test: Growth inhibition of human SNB75 cells after 48 hrs by sulforhodamine B assay; type: functional; conditions: SNB-75, 48 h
[40] = system: SNB-19; test: Growth inhibition of human SNB19 cells after 48 hrs by sulforhodamine B assay; type: functional; conditions: SNB-19, 48 h
[41] = system: HOP-62; test: Growth inhibition of human HOP62 cells after 48 hrs by sulforhodamine B assay; type: functional; conditions: HOP-62, 48 h
[42] = system: HCC 2998; test: Growth inhibition of human HCC2998 cells after 48 hrs by sulforhodamine B assay; type: functional; conditions: HCC 2998, 48 h
[43] = system: LOX IMVI; test: Growth inhibition of human LOXIMVI cells after 48 hrs by sulforhodamine B assay; type: functional
[44] = system: MDA-MB-435; test: Growth inhibition of human MDA-MB-435 cells after 48 hrs by sulforhodamine B assay; type: functional; conditions: MDA-MB-435, 48 h
[45] = system: TK-10; test: Growth inhibition of human TK10 cells after 48 hrs by sulforhodamine B assay; type: functional; conditions: TK-10, 48 h
[46] = system: NCI-H522; test: Growth inhibition of human NCI-H522 cells after 48 hrs by sulforhodamine B assay; type: functional; conditions: NCI-H522, 48 h
[47] = system: RXF 393; test: Growth inhibition of human RXF393 cells after 48 hrs by sulforhodamine B assay; type: functional; conditions: RXF 393, 48 h
[48] = system: OVCAR-8; test: Growth inhibition of human OVCAR8 cells after 48 hrs by sulforhodamine B assay; type: functional; conditions: OVCAR-8, 48 h
[49] = system: 786-0; test: Growth inhibition of human 786-0 cells after 48 hrs by sulforhodamine B assay; type: functional; conditions: 786-0, 48 h
[50] = system: T47D; test: Growth inhibition of human T47D cells after 48 hrs by sulforhodamine B assay; type: functional
[51] = system: SR; test: Growth inhibition of human SR cells after 48 hrs by sulforhodamine B assay; type: functional
[52] = system: OVCAR-4; test: Growth inhibition of human OVCAR4 cells after 48 hrs by sulforhodamine B assay; type: functional; conditions: OVCAR-4, 48 h
[53] = system: Plasmodium falciparum; test: Antimalarial activity after 72 hrs against chloroquine-sensitive Plasmodium falciparum D6 infected in erythrocytes by LDH assay; type: functional, organism-based; conditions: D6, 72 h
[54] = system: SK-OV-3; test: Growth inhibition of human SKOV3 cells after 48 hrs by sulforhodamine B assay; type: functional; conditions: SK-OV-3, 48 h
[55] = system: NCI/ADR-RES; test: Growth inhibition of human NCI/ADR-RES cells after 48 hrs by sulforhodamine B assay; type: functional
[56] = Cytotoxicity against african green monkey Vero cells after 48 hrs by neutral red assay; type: cell-based; conditions: chlorocebus sabaeus, read-out: TC50
[57] = system: ACHN; test: Growth inhibition of human ACHN cells after 48 hrs by sulforhodamine B assay; type: functional
[58] = system: SK-MEL-5; test: Growth inhibition of human SK-MEL-5 cells after 48 hrs by sulforhodamine B assay; type: functional; conditions: SK-MEL-5, 48 h
[59] = system: OVCAR-5; test: Growth inhibition of human OVCAR5 cells after 48 hrs by sulforhodamine B assay; type: functional; conditions: OVCAR-5, 48 h
[60] = system: SF-539; test: Growth inhibition of human SF539 cells after 48 hrs by sulforhodamine B assay; type: functional; conditions: SF-539, 48 h
[61] = system: SF-295; test: Growth inhibition of human SF295 cells after 48 hrs by sulforhodamine B assay; type: functional; conditions: SF-295, 48 h
[62] = system: SF-268; test: Growth inhibition of human SF268 cells after 48 hrs by sulforhodamine B assay; type: functional; conditions: SF-268, 48 h
[63] = system: NCI-H460; test: Growth inhibition of human NCI-H460 cells after 48 hrs by sulforhodamine B assay; type: functional; conditions: NCI-H460, 48 h
[64] = system: HT-29; test: Growth inhibition of human HT-29 cells after 48 hrs by sulforhodamine B assay; type: functional; conditions: HT-29, 48 h
[65] = system: BT-549; test: Growth inhibition of human BT549 cells after 48 hrs by sulforhodamine B assay; type: functional; conditions: BT-549, 48 h
[66] = Growth inhibition of human […] cells after 48 hrs by sulforhodamine B assay; type: functional

## CO[C@@H]1[C@H](OC(=O)NC(=O)CCl)CC[C@]2(CO2)[C@H]1[C@@]1(C)O[C@@H]1CC=C(C)C [O-CHLOROACETYLCARBAMOYLFUMAGILLOL]
[1]
  IC50: 3.16 µM
[2]
  IC50: 1 µM
[3]
  IC50: 0.5 µM

## C[C@H]1[C@@H](OCCCO[C@H]2O[C@@H]3O[C@@]4(C)CC[C@H]5[C@H](C)CC[C@@H]([C@H]2C)[C@@]35OO4)O[C@@H]2O[C@@]3(C)CC[C@H]4[C@H](C)CC[C@@H]1[C@@]24OO3
[4]
  GI50: > 100 µM
[5]
  GI50: > 100 µM
[6]
  GI50: > 100 µM
[7]
  GI50: > 100 µM
[8]
  selectivity ratio: 35
[9]
  GI50: 0.517 µM
[10]
  GI50: 5.95 µM
[11]
  GI50: 3.08 µM
[12]
  GI50: 0.403 µM
[13]
  IC50: 8.5 µM
[14]
  GI50: > 100 µM
[15]
  GI50: 14.7 µM
[16]
  GI50: > 100 µM
[17]
  GI50: 5.49 µM
[18]
  GI50: > 100 µM
[19]
  GI50: 17.9 µM
[20]
  GI50: 0.522 µM
[21]
  GI50: > 100 µM
[22]
  GI50: > 100 µM
[23]
  GI50: 0.45 µM
[24]
  GI50: 6.95 µM
[25]
  GI50: > 100 µM
[26]
  GI50: 0.652 µM
[27]
  GI50: > 100 µM
[28]
  GI50: 100 µM
[29]
  GI50: 0.62 µM
[30]
  GI50: 7.34 µM
[31]
  GI50: 1.58 µM
[32]
  GI50: 0.545 µM
[33]
  GI50: 4.03 µM
[34]
  selectivity ratio: > 21
[35]
  GI50: 1.31 µM
[36]
  GI50: 7.68 µM
[37]
  GI50: 28.7 µM
[38]
  GI50: > 100 µM
[39]
  GI50: > 100 µM
[40]
  GI50: > 100 µM
[41]
  GI50: > 100 µM
[42]
  GI50: 9.65 µM
[43]
  GI50: > 100 µM
[44]
  GI50: 0.694 µM
[45]
  GI50: 2.41 µM
[46]
  GI50: 7.13 µM
[47]
  GI50: 8 µM
[48]
  GI50: > 100 µM
[49]
  GI50: 1.41 µM
[50]
  GI50: 0.497 µM
[51]
  GI50: 1.98 µM
[52]
  GI50: > 100 µM
[53]
  IC50: 14 µM
[54]
  GI50: > 100 µM
[55]
  GI50: 3.64 µM
[56]
  CC50 at 48 h: 296 µM
[57]
  GI50: 1.47 µM
[58]
  GI50: 30.5 µM
[59]
  GI50: > 100 µM
[60]
  GI50: > 100 µM
[61]
  GI50: > 100 µM
[62]
  GI50: > 100 µM
[63]
  GI50: 31.2 µM
[64]
  GI50: 0.522 µM
[65]
  GI50: 2.79 µM
[66]
  GI50: 4.45 µM
